This note sets out measurements from patent publication US12084430B2, “Tricyclic urea compounds as JAK2 V617F inhibitors” (Incyte Corporation, priority 2022, dated 2024).

Data set [1] has as its system STAT5 (Tyr694) phosphorylation in SET-2 cells. As to the kind of experiment: STAT5 (Tyr694) phosphorylation cell based assay. The settings on record: Homo sapiens, pSTAT5, 2 hours, read-out: SET2 IC50. The procedure:
Example E. STAT5 (Tyr694) Phosphorylation Cell Based Assay
SET-2 cells was purchased from DSMZ (Germany). RPMI1640 medium, Fetal Bovine Serum and 384-white sold flat-bottom small volume plate were purchased from Thermo Fisher Scientific (Waltham, MA). Phospho-STAT5 (Tyr694) HTRF kit was purchased from Perkin Elmer (Waltham, MA).
SET-2 cells were cultured in RPMI media with 20% FBS at 37° C. in humidified incubator supplied with 5% CO2. On the day of assay, the cells were centrifuged to remove the culture media and resuspended with prewarmed RPMI with 10% FBS. Testing compounds were prepared by serial dilution in DMSO and 50 nL/well test compounds were transferred to the 384 white low volume cell culture plate (Greiner Bio-one) by ECHO liquid handler (Labcyte). The cells were then dispensed with Multidrop (Thermo Fisher, Waltham, MA) at 10 μL/well (7×10^6 cells/mL) with 0.5% DMSO in the final assay. After the treated cells were incubated for 2 hours at 37° C./5% CO2 incubator, 4 μL/well supplemented lysis buffer (100× blocking buffer diluted 25 fold in 4× lysis buffer, Perkin Elmer) were added and incubated at room temperature for 90 min on orbital shaker at 600 rpm. Phospho-STAT5 Cryptate antibody and Phospho-STAT5 d2 antibody (1:1 vol/vol) were premixed and diluted 20 fold with in the detection buffer (Perkin Elmer). 4 μL of the premixed antibody solution were added to each well followed with 24 hours incubation at room temperature on orbital shaker at 600 rpm. The product activity was determined by measuring the fluorescence at 620 nm and 665 nm on Pherastar microplate reader (BMG Labtech). A ratio is calculated (665/620) for each well. Wells with DMSO only served as the positive controls and wells containing high concentration of control compound were used as negative controls. IC50 determination was performed by fitting the curve of percent control activity versus the log of the compound concentration using the GraphPad Prism 7.0 software.

Data set [2] can be described thus: In vitro intrinsic clearance. It is filed as in vitro ADME. To be noted: human liver microsomes, 1 μM. The procedure: Example G. In Vitro Intrinsic Clearance Protocol
For in vitro metabolic stability experiments, test compounds were incubated with human liver microsomes at 37° C. The incubation mixture contained test compounds (1 μM), NADPH (2 mM), and human liver microsomes (0.5 mg protein/mL) in 100 mM phosphate buffer (pH 7.4). The mixture was pre-incubated for 2 min at 37° C. before the addition of NADPH. Reactions were commenced upon the addition of NADPH and quenched with ice-cold methanol at 0, 10, 20, and 30 min. Terminated incubation mixtures were analyzed using LC-MS/MS system. The analytical system consisted of a Shimadzu LC-30AD binary pump system and SIL-30AC autosampler (Shimadzu Scientific Instruments, Columbia, MD) coupled with a Sciex Triple Quad 6500+ mass spectrometer from Applied Biosystems (Foster City, CA). […] Mobile phase A consisted of 0.1% formic acid in water, and mobile phase B consisted of 0.1% formic acid in acetonitrile. The total LC-MS/MS runtime was 2.75 minutes with a flow rate of 0.75 mL/min. Peak area integrations and peak area ratio calculations were performed using Analyst software (version 1.6.3) from Applied Biosystems.
The in vitro intrinsic clearance, CLint, in vitro, was calculated from the t1/2 of test compound disappearance as CLint, in vitro=(0.693/t1/2)×(1/Cprotein), where Cprotein is the protein concentration during the incubation, and t1/2 was determined by the slope (k) of the log-linear regression analysis of the concentration versus time profiles; thus, t1/2=ln 2/k. The CLint, in vitro values were scaled to the in vivo values for human by using physiologically based scaling factors, hepatic microsomal protein concentrations (45 mg protein/g liver), and liver weights (21 g/kg body weight). The equation CLint=CLint, in vitro×(mg protein/g liver weight)×(g liver weight/kg body weight) was used. The in vivo hepatic clearance (CLH) was then calculated by using CLint and hepatic blood flow, Q (20 mL·min^−1·kg^−1 in humans) in the well-stirred liver model disregarding all binding from CLH=(Q×CLint)/(Q+CLint). The hepatic extraction ratio was calculated as CLH divided by Q.
On the technique in general: Microsomes from liver hold many membrane-bound enzymes, among them those of drug oxidation.

A further data set has as its system FLT3. As to the kind of experiment: FLT3 enzymatic assay. It is filed as biochemical. How it is done:
Example C. FLT3 Enzymatic Assay
(§1) The kinase assays were carried out at room temperature in assay buffer (HEPES 50 mM, pH 7.0, NaN3 0.02%, BSA 0.01%, Orthovanadate 0.1 mM, DTT 1 mM, MgCl2 10 mM) in a final volume of 10 μL. Testing compounds were prepared by serial dilution in DMSO and transferred to the plate wells by ECHO liquid handler (Labcyte) with 0.5% DMSO in the final assay. […]. Reactions were initiated by the addition of 5 μL ATP in assay buffer. The final 10 μL kinase reaction consists of 0.011 nM FLT3, 1 mM ATP, 500 nM TK Substrate-biotin and SEB reagent 62.5 nM in assay buffer. […] The plates were then sealed and centrifuged at 1800 rpm for 2 minutes. After 60 minutes incubation at room temperature, the product activity was determined by measuring the fluorescence at 620 nm and 665 nm on Pherastar microplate reader (BMG Labtech). A ratio is calculated (665/620 nm) for each well. Wells with DMSO only were served as the positive controls and wells containing no ATP were used as negative controls. IC50 determination was performed by fitting the curve of percent control activity versus the log of the compound concentration using the GraphPad Prism 7.0 software.

The test system of a further data set is KIT. Nature of the data set: KIT enzymatic assay. It is filed as biochemical. The procedure:
Example D. KIT Enzymatic Assay
as §1, with “0.12” for “0.011”, “KIT,” for “FLT3,”

The test system of data set [3] is TRKA. Nature of the data set: TRKA enzymatic assay. It is filed as biochemical. How it is done: (§2) Example I. TRKA Enzymatic Assay
(§3) The kinase assays were carried out at 24° C. temperature in assay buffer (HEPES 50 mM, pH 7.0, NaN3 0.02%, BSA 0.01%, Orthovanadate 0.1 mM, DTT 1 mM, MgCl2 10 mM) in a final volume of 10 μL. Testing compounds were prepared by serial dilution in DMSO and transferred to the plate wells by ECHO liquid handler (Labcyte) with 0.5% DMSO in the final assay. […]. Reactions were initiated by the addition of 5 μL ATP in assay buffer. The final 10 μL kinase reaction consists of 0.58 nM TRKA, 1 mM ATP, 500 nM TK Substrate-biotin and SEB reagent 62.5 nM in assay buffer. […] After 60 minutes incubation at room temperature, the product activity was determined by measuring the fluorescence at 620 nm and 665 nm on Pherastar microplate reader (BMG Labtech). A ratio is calculated (665/620 nm) for each well. Wells with DMSO only were served as the positive controls and wells containing no ATP were used as negative controls. IC50 determination was performed by fitting the curve of percent control activity versus the log of the compound concentration using the Gene data.

In data set [4] the target is TRKA (Homo sapiens, UniProt P04629). As to the kind of experiment: TRKA enzymatic assay. It is filed as biochemical. The settings on record: 1 mM ATP. The procedure:
as §2, §3

pIC50: −log10 of the molar value.

TRKA (Homo sapiens, UniProt P04629), sequence (P04629 33-796, species assumed): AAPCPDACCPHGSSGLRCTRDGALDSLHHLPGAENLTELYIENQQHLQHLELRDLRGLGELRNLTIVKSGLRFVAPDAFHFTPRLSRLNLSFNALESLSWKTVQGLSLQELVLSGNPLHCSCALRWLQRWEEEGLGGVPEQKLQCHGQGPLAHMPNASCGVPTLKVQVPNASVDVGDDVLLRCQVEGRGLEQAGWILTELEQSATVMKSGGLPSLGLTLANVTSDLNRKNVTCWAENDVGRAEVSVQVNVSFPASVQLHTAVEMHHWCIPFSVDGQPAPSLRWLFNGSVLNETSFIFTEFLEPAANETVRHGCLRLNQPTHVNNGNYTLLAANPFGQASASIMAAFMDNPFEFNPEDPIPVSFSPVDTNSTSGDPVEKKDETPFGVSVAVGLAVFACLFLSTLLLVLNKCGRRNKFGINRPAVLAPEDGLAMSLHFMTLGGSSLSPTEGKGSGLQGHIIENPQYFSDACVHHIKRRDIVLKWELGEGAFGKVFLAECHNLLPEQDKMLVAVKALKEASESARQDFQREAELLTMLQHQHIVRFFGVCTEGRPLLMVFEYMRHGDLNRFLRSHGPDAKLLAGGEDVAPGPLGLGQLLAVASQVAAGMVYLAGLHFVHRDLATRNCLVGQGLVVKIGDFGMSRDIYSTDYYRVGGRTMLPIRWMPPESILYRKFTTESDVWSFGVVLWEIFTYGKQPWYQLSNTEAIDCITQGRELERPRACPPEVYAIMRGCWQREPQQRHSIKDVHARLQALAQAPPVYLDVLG

A word on the pIC50: it is the negative decadic logarithm of the IC50, by convention in mol/L. In the case of `Cn1cc(-c2[nH]c3ncc4c(c3c2-c2ccc3c(cnn3C)c2)n([C@H]2CC[C@@H](CC#N)CC2)c(=O)n4C)cn1` [C, reference compound], the results for the pIC50 (in data set [1]; at TRKA [4]) were at least 6.52 and above 7.60, respectively. Moreover, the h-IntCL result in data set [2] was “‡ ‡ ‡ (h-IntCL of >1 L/h/kg)”. In addition, the “Selectivity FLT3/JH2 V617F” value in the data set on FLT3 was “* (selectivity of ≤500-fold)”. The “Selectivity KIT/JH2 V617F” value in the data set with KIT is reported as “* (selectivity of ≤500-fold)”. In the data set with TRKA [3], the “Selectivity TRKA/JH2 V617F” value is on record as “* (selectivity of ≤500-fold)”.
Consider `COc1ccc(-c2c(-c3cnn(Cc4ccncc4)c3)[nH]c3ncc4c(c23)n(C2CCCC2)c(=O)n4C)cc1` [Comparative Example D, reference compound], for which, in data set [1], the pIC50 is at least 6.52. Moreover, in data set [2], the h-IntCL entry is “‡ ‡ ‡ (h-IntCL of >1 L/h/kg)”.
